# Data taken from ChEMBL document CHEMBL1201862, “PubChem BioAssay data set” (2004).
# Active and inactive are the calls of the source. Where a SMILES comes first, the peptide text is derived from it. [ ]: non-standard residue; d: D form. The star is where a group is joined. Ac5c = NC1(C(=O)O)CCCC1; Cbz = O=C(OCc1ccccc1)*
# Legend:
# [1] = Luminescence Cell-Based Dose Retest to Confirm Inhibitors of Cancer Stem Cells. [Related pubchem assays (depositor defined):AID2717, AID2721]; assay type: functional; conditions: Homo sapiens
# [2] = target: FAD-linked sulfhydryl oxidase ALR (Homo sapiens, UniProt P55789); test: inhibitors of human ALR sulfhydryl oxidase, dose response, biochemical, H2O2 detection, luminescence, cherry-pick (AID 493248)
# FAD-linked sulfhydryl oxidase ALR, sequence (P55789 whole entry): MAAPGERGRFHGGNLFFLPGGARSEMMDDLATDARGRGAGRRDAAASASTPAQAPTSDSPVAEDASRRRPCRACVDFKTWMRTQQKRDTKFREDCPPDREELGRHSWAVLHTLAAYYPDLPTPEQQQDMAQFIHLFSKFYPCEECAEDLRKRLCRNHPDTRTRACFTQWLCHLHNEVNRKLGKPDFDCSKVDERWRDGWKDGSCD
# Large T antigen = Large T antigen (Simian virus 40, UniProt P03070); assay type: functional, Betapolyomavirus macacae;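 further: Confirmatory-stage PubChem screen for compounds that inhibit SV40 T antigen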
# Large T antigen, sequence (P03070 whole entry): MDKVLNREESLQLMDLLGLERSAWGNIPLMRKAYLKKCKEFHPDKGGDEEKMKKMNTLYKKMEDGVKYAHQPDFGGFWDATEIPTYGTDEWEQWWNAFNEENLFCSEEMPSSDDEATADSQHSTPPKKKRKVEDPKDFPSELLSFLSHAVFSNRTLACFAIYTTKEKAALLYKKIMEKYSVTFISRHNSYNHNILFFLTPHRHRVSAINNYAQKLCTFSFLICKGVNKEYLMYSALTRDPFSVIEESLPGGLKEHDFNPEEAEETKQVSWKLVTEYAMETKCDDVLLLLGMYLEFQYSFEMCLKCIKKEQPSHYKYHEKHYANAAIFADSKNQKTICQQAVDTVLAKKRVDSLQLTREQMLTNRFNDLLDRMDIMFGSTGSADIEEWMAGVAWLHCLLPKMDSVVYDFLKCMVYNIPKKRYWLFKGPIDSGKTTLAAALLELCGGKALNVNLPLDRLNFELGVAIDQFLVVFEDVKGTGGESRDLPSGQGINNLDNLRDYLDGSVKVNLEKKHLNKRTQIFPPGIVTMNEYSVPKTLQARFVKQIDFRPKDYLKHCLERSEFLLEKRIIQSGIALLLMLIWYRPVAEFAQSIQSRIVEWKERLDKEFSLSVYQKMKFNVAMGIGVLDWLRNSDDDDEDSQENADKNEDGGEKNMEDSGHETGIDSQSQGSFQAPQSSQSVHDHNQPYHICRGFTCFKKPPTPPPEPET
# Vero = test: cells; assay type: functional; conditions: Chlorocebus sabaeus
# Nonstructural protein 1 = Nonstructural protein 1 (Influenza A virus, UniProt Q194T2); assay type: functional, Influenza A virus (A/California/07/2009(H1N1))
# Nonstructural protein 1, sequence (Q194T2 whole entry): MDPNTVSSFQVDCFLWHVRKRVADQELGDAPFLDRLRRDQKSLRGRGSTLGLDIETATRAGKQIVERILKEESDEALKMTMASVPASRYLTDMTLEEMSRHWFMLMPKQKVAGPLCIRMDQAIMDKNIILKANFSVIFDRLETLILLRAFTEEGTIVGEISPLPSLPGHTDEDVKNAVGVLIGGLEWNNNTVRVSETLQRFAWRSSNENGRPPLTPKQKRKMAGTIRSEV
# [3] = target: DNA dC->dU-editing enzyme APOBEC-3A (Homo sapiens, UniProt P31941); test: Dose Response confirmation of small molecule APOBEC3A DNA Deaminase Inhibitors via a fluorescence-based single-stranded DNA deaminase assay. [Related pubchem assays (depositor defined):AID493011, AID493024]; assay type: functional
# DNA dC->dU-editing enzyme APOBEC-3A, sequence (P31941 whole entry): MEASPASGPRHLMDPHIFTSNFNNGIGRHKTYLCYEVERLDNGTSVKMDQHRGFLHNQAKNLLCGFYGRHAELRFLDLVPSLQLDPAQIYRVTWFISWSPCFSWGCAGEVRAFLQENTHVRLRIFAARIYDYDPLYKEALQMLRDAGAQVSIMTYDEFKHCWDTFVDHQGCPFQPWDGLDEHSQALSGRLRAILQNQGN
# [4] = target: DNA dC->dU-editing enzyme APOBEC-3G (Homo sapiens, UniProt Q9HC16); assay type: functional;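 further: Dose-response counterscreen measuring inhibition of APOBEC3G DNA deaminase activity, run while confirming APOBEC3A inhibitors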
# DNA dC->dU-editing enzyme APOBEC-3G, sequence (Q9HC16 whole entry): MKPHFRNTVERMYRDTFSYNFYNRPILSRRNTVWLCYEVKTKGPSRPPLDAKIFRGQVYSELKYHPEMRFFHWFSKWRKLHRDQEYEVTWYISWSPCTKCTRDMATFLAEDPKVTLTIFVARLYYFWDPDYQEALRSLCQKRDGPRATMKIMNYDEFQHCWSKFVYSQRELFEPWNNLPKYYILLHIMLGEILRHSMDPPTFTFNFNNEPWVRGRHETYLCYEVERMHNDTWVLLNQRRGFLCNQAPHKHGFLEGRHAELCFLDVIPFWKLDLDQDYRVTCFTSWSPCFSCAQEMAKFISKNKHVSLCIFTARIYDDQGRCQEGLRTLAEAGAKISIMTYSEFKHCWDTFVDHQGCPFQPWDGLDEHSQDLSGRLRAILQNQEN
# [5] = target: T1, Heat shock factor protein 1 (Mus musculus, UniProt P38532); test: HSF1 potentiators in luciferase reporter cells, confirmation, cell-based, NIH3T3, luminescence, dose retest (AID 435004); assay type: functional;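 further: stress induced by proteasome inhibitor MG132 added 30 min after compound; luciferase reporter driven by HSF1 response element in NIH3T3 cells; actives raise luminescence as potentiators of the MG132 stress response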
# T1 sequence (P38532 whole entry): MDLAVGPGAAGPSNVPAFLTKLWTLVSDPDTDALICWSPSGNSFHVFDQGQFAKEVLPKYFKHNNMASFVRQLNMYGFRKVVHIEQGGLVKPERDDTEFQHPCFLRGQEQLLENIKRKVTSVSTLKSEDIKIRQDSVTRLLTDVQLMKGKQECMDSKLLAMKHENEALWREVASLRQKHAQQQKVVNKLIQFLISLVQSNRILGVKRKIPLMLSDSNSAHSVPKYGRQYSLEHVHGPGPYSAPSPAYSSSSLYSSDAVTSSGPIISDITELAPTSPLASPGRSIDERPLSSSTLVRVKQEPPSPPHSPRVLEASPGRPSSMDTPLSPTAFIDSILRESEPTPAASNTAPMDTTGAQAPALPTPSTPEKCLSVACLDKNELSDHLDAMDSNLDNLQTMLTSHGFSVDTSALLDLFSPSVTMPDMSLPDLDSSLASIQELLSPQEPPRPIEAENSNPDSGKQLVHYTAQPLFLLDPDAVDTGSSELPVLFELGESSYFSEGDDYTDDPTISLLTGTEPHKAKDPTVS
# [6] = THP-1 cell cytotoxicity, dose response, cytotoxicity control for non-replicating M. tuberculosis project (AID 489025); assay type: functional
# cells [7] = assay type: functional, cell-based
# cells [8] = assay type: functional, cell-based; remark: listed apart in the source
# [9] = Shn3 3'UTR reporter inhibitors, dose response, cell-based, Clone20 osteoblasts, firefly luciferase, cherry-picked (AID 624132); assay type: functional;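 further: firefly luciferase luminescence from reporter carrying the Shn3 3'UTR in osteoblasts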
# [10] = control 3'UTR Renilla luciferase suppression, dose response, counter-screen for Shn3 inhibitor project, cell-based, Clone20-Shn3RL, cherry-picked (AID 624133); assay type: functional
# Cytochrome P450 2C19 = Cytochrome P450 2C19 (Homo sapiens, UniProt P33261); test: Cytochrome panel assay with activity outcomes. Panel member name: p450-cyp2c19 Compounds with AC50 equal or less than 10 uM are considered active; assay type: functional; conditions: read-out: AC50
# Cytochrome P450 2C19, sequence (P33261 whole entry, the tested form may be a part): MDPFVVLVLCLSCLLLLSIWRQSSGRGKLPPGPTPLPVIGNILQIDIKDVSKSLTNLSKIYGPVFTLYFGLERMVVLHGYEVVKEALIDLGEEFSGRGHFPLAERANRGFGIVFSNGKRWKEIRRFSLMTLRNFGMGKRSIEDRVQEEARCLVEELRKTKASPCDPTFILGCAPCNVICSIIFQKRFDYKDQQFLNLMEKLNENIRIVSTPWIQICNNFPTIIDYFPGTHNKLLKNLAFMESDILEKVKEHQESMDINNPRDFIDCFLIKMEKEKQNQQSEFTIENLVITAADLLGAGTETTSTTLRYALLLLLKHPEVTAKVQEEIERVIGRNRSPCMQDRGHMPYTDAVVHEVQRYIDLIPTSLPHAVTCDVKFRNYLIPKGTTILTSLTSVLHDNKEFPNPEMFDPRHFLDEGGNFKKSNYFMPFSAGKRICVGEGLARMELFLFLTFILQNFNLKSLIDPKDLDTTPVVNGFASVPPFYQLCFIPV
# [11] = target: T2, RNA-binding protein pos-1 (Caenorhabditis elegans, UniProt G5EF15); test: inhibitors of POS-1/mex-3 RNA binding, dose response, biochemical, fluorescence polarization (AID 1964);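 further: purified POS-1 fused to maltose binding protein made in E. coli; potency of compounds blocking POS-1 binding to fluorescent RNA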
# T2 sequence (G5EF15 whole entry): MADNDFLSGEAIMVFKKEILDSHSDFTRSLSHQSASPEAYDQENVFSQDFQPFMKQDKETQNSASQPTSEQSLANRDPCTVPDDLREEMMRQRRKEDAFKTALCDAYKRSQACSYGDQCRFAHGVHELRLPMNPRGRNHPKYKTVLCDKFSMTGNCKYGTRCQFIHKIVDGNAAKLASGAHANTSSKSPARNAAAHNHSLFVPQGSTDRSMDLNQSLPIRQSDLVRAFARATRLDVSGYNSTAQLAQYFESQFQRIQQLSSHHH
# [12] = target: T3, Zinc finger protein mex-5 (Caenorhabditis elegans, UniProt Q9XUB2); test: MEX-5/TCR-2 RNA interaction inhibitors, dose response, biochemical, C. elegans, fluorescence polarization (AID 1960)
# T3 sequence (Q9XUB2 whole entry): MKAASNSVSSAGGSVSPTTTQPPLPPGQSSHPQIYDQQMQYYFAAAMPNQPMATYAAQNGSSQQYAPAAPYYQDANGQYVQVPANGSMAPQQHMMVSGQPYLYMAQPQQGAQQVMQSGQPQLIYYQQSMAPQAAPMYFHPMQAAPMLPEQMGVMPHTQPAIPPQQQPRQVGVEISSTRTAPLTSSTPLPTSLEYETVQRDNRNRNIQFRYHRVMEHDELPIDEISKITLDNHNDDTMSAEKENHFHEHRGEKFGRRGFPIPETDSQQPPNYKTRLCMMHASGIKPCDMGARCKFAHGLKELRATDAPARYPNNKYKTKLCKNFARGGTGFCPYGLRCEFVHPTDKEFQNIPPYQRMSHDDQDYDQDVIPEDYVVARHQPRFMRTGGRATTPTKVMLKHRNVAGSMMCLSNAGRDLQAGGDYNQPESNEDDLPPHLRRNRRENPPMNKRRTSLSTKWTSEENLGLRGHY
# [13] = inhibitors of firefly luciferase expression or activity, dose response, H4 neuroglioma cells, luminescence (AID 1990); assay type: functional, cell-based
# [14] = Luminescence Cell-Based Dose Response HTS to Identify Inhibitors of 5'UTR Stem-Loop Driven Prion Protein mRNA Translation in H4 Neuroglioblastoma Cells. [Related pubchem assays: 1827 (Project Summary), 1813 (Primary HTS)]; assay type: functional
# [15] = inhibitors of SNCA 5'UTR-driven reporter translation, confirmation, H4 neuroglioma cells, luminescence (AID 1988); assay type: functional, cell-based
# [16] = NIH-3T3 fibroblast cytotoxicity, dose response, cytotoxicity control, cell-based, fluorescence, Alamar Blue, secondary assay (AID 2327); assay type: functional;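 further: NIH-3T3 mouse fibroblasts cultured with fluconazole at 8 µg/mL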
# [17] = tested on: Streptococcus sp. 'group A'; test: growth inhibition of control SK(-) GAS strain, dose response, counter-screen for streptokinase expression inhibitor project, luminescence, kanamycin, BacTiterGlo, confirmation (AID 1900); assay type: functional, organism-based
# Streptokinase A = target: T4, Streptokinase A (Streptococcus pyogenes serotype M1, UniProt P10520); test: S. pyogenes streptokinase expression inhibitors, potency, dose response, plasminogen activation absorbance, OD405 (AID 1914); assay type: functional, Streptococcus pyogenes M1 GAS;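 further: secreted streptokinase activity via plasminogen activation per viability signal from cell pellet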
# T4 sequence (P10520 whole entry): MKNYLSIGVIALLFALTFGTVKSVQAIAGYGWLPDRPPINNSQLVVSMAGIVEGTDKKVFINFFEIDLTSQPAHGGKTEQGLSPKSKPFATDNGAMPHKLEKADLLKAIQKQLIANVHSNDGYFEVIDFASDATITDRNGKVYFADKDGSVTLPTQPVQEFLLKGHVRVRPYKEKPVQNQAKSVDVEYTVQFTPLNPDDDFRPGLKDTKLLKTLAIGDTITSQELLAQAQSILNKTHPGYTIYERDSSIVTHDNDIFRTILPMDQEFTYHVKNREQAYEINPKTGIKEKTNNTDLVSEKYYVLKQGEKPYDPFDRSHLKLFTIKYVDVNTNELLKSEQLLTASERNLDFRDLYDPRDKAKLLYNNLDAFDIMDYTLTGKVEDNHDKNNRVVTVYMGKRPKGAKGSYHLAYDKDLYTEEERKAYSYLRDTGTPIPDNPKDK
# [18] = C. albicans growth with fluconazole, confirmation, fluorescence, retest (AID 2467); assay type: functional, cell-based
# [19] = inhibitors of intracellular T. cruzi replication, confirmation, NIH3T3 host cells, beta-gal luminescence (AID 2044); assay type: functional, cell-based;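 further: intracellular parasites grown in NIH/3T3 mouse fibroblasts as host cells; luminescent beta-galactosidase reporter signal from transgenic T. cruzi replicating inside host cells; inhibitors lower the luminescence signal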
# [20] = cytotoxicity toward NIH3T3 fibroblasts, dose response, counter-screen, cell-based, ATP luminescence, mouse fibroblasts (AID 2010); assay type: functional;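 further: cells exposed to compound for about 90 hours before reading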
# Streptococcus = test: Group A Streptococcus viability loss, dose response, counter-screen for streptokinase expression inhibitor project, luminescence, BacTiterGlo (AID 1915); assay type: functional, organism-based;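 further: potency for reduction of bacterial viability or growth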
# INS1 = test: beta cell apoptosis inhibitors, cytokine rescue, dose response, luminescence, retest (AID 449756); assay type: functional, cell-based; conditions: Rattus norvegicus;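 further: cell death triggered by IL-1 beta plus TNF-alpha plus IFN-gamma mixture; protective hits raise ATP signal compared with cytokine alone wells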
smiles,measurement,setting,value
CN1C(=O)C(=CNNc2ccccc2)C(=O)N(C)C1=O,AC50,[1],2.87 µM (active)
same,AC50,[2],0.031 µM (active)
CCOc1ccc(NCc2cccn2-c2nnc(N3CCC(C(=O)NCCCN4CC(C)CC(C)C4)CC3)s2)cc1 (centres undefined),IC50,Large T antigen,19.3 µM (active)
same,CC50,Vero,23.9 µM (active)
COc1ccc(N2CCN(C(CNS(=O)(=O)c3ccc(C)cc3)c3ccccc3)CC2)cc1 (centres undefined),IC50,Nonstructural protein 1,> 100 µM (active)
C[n+]1cccc(C(=O)NCC2CCCO2)c1 (centres undefined),IC50,[3],2.55 µM (active)
same,IC50,[4],4.44 µM (active)
O=C(CSC1=NCCS1)NC1CCCCC1,IC50,[3],3.67 µM (active)
same,IC50,[4],3.76 µM (active)
COc1ccc2cc(/C=C/C(=O)N3CCN(CC(=O)N4CCCCCC4)CC3)ccc2c1,EC50,[5],> 260 µM (inactive)
CC(C)(C)c1ccc(NC(=O)C2=CN3CCS(=O)(=O)N=C3C=C2)cc1,IC50,[3],5.24 µM (active)
same,IC50,[4],8.51 µM (active)
CC(C)NS(=O)(=O)c1ccc2c(c1)NCC2,AC50,[2],5.77 µM (active)
COc1ccc(NC(=O)C(=O)N2N=C3CCCCC3C2(O)C(F)(F)F)cc1 (centres undefined),IC50,[3],6.08 µM (active)
same,IC50,[4],6.97 µM (active)
Cc1ccc(S(=O)(=O)N2CC(O)C[C@H]2C(=O)OCC(=O)Nc2ccc(N3CCCCC3)cc2)cc1C (some centres undefined),IC50,Nonstructural protein 1,62.8 µM (active)
O=S(=O)(c1ccc(OCC2CO2)cc1)c1ccc(OCC2CO2)cc1 (centres undefined),CC50,[6],32.2 µM (active)
COCc1cc(C)nc(N2CCN(Cc3ccccc3)CC2)c1C#N,IC50,[3],3.15 µM (active)
same,IC50,[4],3.55 µM (active)
COc1ccc(-c2c(C)nn3c(NC4CCCC4)cc(C)nc23)cc1OC,EC50,[5],> 260 µM (inactive)
O=C1Nc2ccc(Cl)cc2/C1=C/C1CC=CCC1 (centres undefined),EC50,cells [7],> 350 µM (not active)
same,EC50,cells [8],61.2 µM (active)
Cn1c(Cc2ccccc2)nnc1SCCC(=O)Nc1ccccc1,IC50,[3],2.03 µM (active)
same,IC50,[4],4.55 µM (active)
COc1ccc(N2CCN(C(=O)CN(C)S(=O)(=O)c3cc(C)ccc3OC)CC2)cc1,EC50,cells [7],> 350 µM (not active)
same,EC50,cells [8],> 350 µM (not active)
Cc1nc2ccccc2n2c(-c3ccccc3)c3c(=O)n(C)c(=O)n(C)c3c12,EC50,cells [7],> 350 µM (not active)
same,EC50,cells [8],> 350 µM (not active)
O=C1N(c2ccccc2)CCN1c1ccccc1,EC50,[5],> 260 µM (inconclusive)
COc1ccc(-c2nc(C#N)c(N3CCN(C(=O)c4ccco4)CC3)o2)cc1OC,EC50,cells [7],> 350 µM (not active)
same,EC50,cells [8],> 350 µM (not active)
CC1(c2ccccc2)CC2CC(c3ccccc3)N1O2 (centres undefined),EC50,[5],> 260 µM (inactive)
Oc1cc(O)nc(SCc2ccccc2)n1,AC50,[2],2.33 µM (active)
Cc1ccc(-c2nn(-c3cc(Cl)ccc3[N+](=O)[O-])c(=O)c3ccccc23)cc1,EC50,[5],> 260 µM (inactive)
CC(C)(C)[C@@H]1COC(=O)[C@@H](NC(=O)OCC2c3ccccc3-c3ccccc32)C/C=C\C[C@@H](CC(=O)NCCO)C(=O)N1,AC50,[9],22.1 µM (active)
same,AC50,[10],26.3 µM (active)
COc1cccc(-c2noc(Cn3nc(C)c([N+](=O)[O-])c3C)n2)c1,AC50,[2],0.983 µM (active)
same,AC50,Cytochrome P450 2C19,1 µM (inconclusive)
Cc1c(NC(=O)c2cc(-n3cnnc3)ccc2Cl)cccc1-c1nc2ccccc2o1,IC50,[3],2.56 µM (active)
same,IC50,[4],2.65 µM (active)
Cc1nc2cc(N)ccc2n1C1CCCCC1,EC50,[11],> 300 µM (not active)
same,EC50,[12],4.72 µM (inconclusive)
same,AC50,[2],0.277 µM (active)
CC(C)c1ccc(CN(C)C(=O)c2ccc(S(=O)(=O)NCc3ccco3)cc2)cc1,CC50,Vero,12.7 µM (active)
Nc1nonc1-n1nnc(C(=O)N/N=C/c2ccc(OCc3ccc(F)cc3)cc2)c1COc1ccccc1,CC50,Vero,> 25 µM (active)
O=C(N/N=C\c1c(O)ccc2ccccc12)c1ccc(O)cc1,EC50,[13],10 µM (active)
same,EC50,cells [7],10.6 µM (active)
same,EC50,[14],8.71 µM (active)
same,EC50,[15],5.97 µM (active)
same,EC50,cells [8],> 350 µM (not active)
CCN(CC)c1ccc(/C=N/NC(=O)CNC(=O)C2COc3ccccc3O2)c(O)c1 (centres undefined),EC50,[16],5.42 µM (inconclusive)
same,EC50,[13],0.229 µM (active)
same,EC50,[17],8.15 µM (active)
same,EC50,cells [7],66.6 µM (active)
same,EC50,[14],0.646 µM (active)
same,EC50,[15],0.311 µM (active)
same,EC50,Streptokinase A,> 150 µM (not active)
same,EC50,[18],1.51 µM (active)
same,EC50,[19],1.2 µM (active)
same,EC50,cells [8],> 350 µM (not active)
same,EC50,[20],4.2 µM (active)
same,EC50,Streptococcus,> 150 µM (not active)
same,AC50,INS1,1.31 µM (active)
COc1cc(/C=N/N2CCCCC2)cc(OC)c1O,AC50,[2],0.639 µM (active)
O=C(CC(=O)N/N=C/c1ccc(O)cc1)N/N=C/c1ccc(O)cc1,IC50,Large T antigen,13.8 µM (active)
same,AC50,[2],1.15 µM (active)
Cn1cc(/C=N/NC(=O)c2cc3cc(Br)ccc3o2)c2ccccc21,IC50,[3],3.98 µM (active)
same,IC50,[4],39.3 µM (active)
CCOC(=O)CNC(=O)C1(NC(=O)CNC(=O)OCc2ccccc2)CCCC1 (Cbz-Gly-[Ac5c]-Gly-OEt),AC50,[10],49.2 µM (active)
